Six compounds from patent US4853385A, “7-N,8-N-Ethylenemitomycin 8-imines” (Kyowa Hakko Kogyo Co., Ltd., priority 1987, dated 1989) can be followed below.

One data set has as its system Sarcoma 180 solid tumor. The experiment in a line: Antitumor activity against sarcoma 180 solid tumor (tumor volume T/C, ED50). The note with it: ddY mice; for CI (chemotherapy index, LD50/ED50): sarcoma 180 solid tumor, i.p.; for ED50: Mus musculus, Sarcoma-180, ip, 168 h, i.p. 24 h after s.c. implantation, tumor volume at 7 days, dose for T/C 0.5. The data set is classed as in vivo. How it is done: (§1) Some compounds were chosen from Compound I, and antitumor activity (ED50) against Sarcoma 180 solid tumor and acute toxicity (LD50) were measured.
(1) Effect on sarcoma 180 solid tumor
Sarcoma 180 cells of 5×10^6 were intraperitoneally implanted into ddY mice. Seven days after, the cells were collected from the ascites. The cells were washed once with a sterile physiological saline, and the cells were suspended in sterile physiological saline to prepare a cell suspension containing 5×10^7 cells per ml. 0.1 ml of the suspension was subcutaneously implanted into the right axilla of male ddY mice weighing 20±2 g. The test compound was dissolved in physiological saline with or without addition of Tween 80 and was administered intraperitoneally into each mouse of a group consisting of 5 mice at a dose of 0.1-0.2 ml, 24 hours after the implantation of the tumor cells.
The anti-tumor activity was determined in the following manner. 7 days after the implantation, the major axis (a) and the minor axis (b) of the tumor were measured to calculate a value of "a×b^2 /2" which corresponds to the volume of the tumor. The anti-tumor activity was expressed by the ratio (T/C) of the volume (T) of the tumors of the group of animals administered with the test compound to the corresponding volume (C) of tumors of the untreated animals.
(2) Determination of ED50 :
On graph paper, T/C was indicated by an arithmetic scale on the longitudinal axis and the administered amount of the test compound was indicated by a logarithmic scale on the lateral axis. The relationship between the dose and T/C was plotted by a straight line determined by the method of least squares, from which a dose corresponding to T/C of 0.5 was obtained.
CI in the table indicates chemotherapy index and given by:
As is clear from this definition, the CI value reflects selective toxicity against tumor. As the CI value is larger, the effect as an antitumor agent is more excellent, and from a clinical viewpoint, allowance of chemicals in dosage becomes broader. Therefore, the CI value is one of the most important indices in evaluation of antitumor agents.

Data set [1] can be described thus: Acute toxicity (LD50, Beherns Kaerber's method). Conditions: mouse, in vivo, ip; single i.p. administration, 14 days observation, ddY mice. How it is done: as §1
Each animal of the test group consisting of 5 ddY mice was administered intraperitoneally once with a test compound. […] The LD50 was determined by Beherns Kaerber's method.

The test system of data set [2] is mitomycin C-resistant P-388. As to the kind of experiment: Antitumor activity against mitomycin C-resistant P-388. The data set is classed as in vivo, CDF1 mice (P-388 from DBA/2 mice). Conditions: single i.p. How it is done: (§2) Some compounds were chosen from Compound I and antitumor activity against lymphocytic leukemia P-388 and mitomycin C-resistant P-388 was measured.
(§3) From the peritoneal cavity of P-388 ascitic tumor-bearing mice (DBA/2) 7 days after the implantation, an ascitic fluid was collected. The cell number of P-388 in the ascitic fluid was counted, and the cells were suspended in sterile physiological saline to prepare a tumor cell suspension containing 5×10^6 cells/ml. 0.2 ml (containing 1×10^6 cells) of the suspension was implanted intraperitoneally into CDF1 mice weighing 20 to 25 g. The test compound was intraperitoneally administered to each mouse of one test group consisting of 6 CDF1 mice at a single dosage in 24 hours after the implantation of the tumor. 33-Day observation gave the survived life span for each mouse. Evaluation of the effect of the test compound was made by a ratio of a mean survival days after the implantation of the mice treated with the test compound to a mean survival days of the mice untreated with the test compound in the control group (Increased Life Span, ILS%). Then, ILS*, which is a ratio of ILS % of the test compound to ILS % of mitomycin C used as a reference compound under the same conditions, was calculated and shown in Table 4.
Further, the experiment was carried out in the same manner as above, using lymphocytic leukemia P-388 resistant to mitomycin C. Evaluation of the effect of the test compound is shown by a ratio (ILS %) to a mean survival data of the control group (untreated mice).

Data set [3] deals with lymphocytic leukemia P-388. The experiment in a line: Antitumor activity against lymphocytic leukemia P-388. The note with it: single i.p., 33-day observation. The data set is classed as in vivo, CDF1 mice (P-388 from DBA/2 mice). As for the experimental part:
as §2
The experiment was carried out by the following method.
as §3

Broadly, the ED50 is the dose at which the effect has come halfway, by size or by number of responders. A higher ED50 goes with a need for a large dose. What is called LD50 is the dose expected to kill half of the subjects tested. A higher LD50 goes with a less toxic substance. For `CO[C@@]12[C@H](COC(N)=O)C3=C(C(=O)C(C)=C4NCCN=C43)N1C[C@H]1[C@@H]2N1C` (stereo partly drawn) [Compound 1, 7-N,8-N-ethyleneporfiromycin 8-imine], in the data set on Sarcoma 180 solid tumor, the “CI (chemotherapy index, LD50/ED50)” value is 1.73 and it took a dose of 1.5 mg/kg to reach the 50% effect level (ED50). In data set [1], this compound displayed an LD50 at 336 h of 2.6 mg/kg. In addition, in data set [2] (mitomycin C-resistant P-388, dose 1.5 mg/kg), the “ILS(%) (ratio to mean survival of the untreated control group)” value is listed as 135%. In addition, in data set [3] (P-388, dose 1.5 mg/kg), the “ILS* (ratio of ILS % of test compound to ILS % of mitomycin C)” value is listed as 0.60.
`CC1=C2NCCN=C2C2=C(C1=O)N1C[C@H]3[C@H](N3C)[C@]1(O)[C@H]2COC(N)=O` (stereo partly drawn) [Compound 2, 7-N,8-N--Ethylenemitomycin D 8-imine]: in the data set with Sarcoma 180 solid tumor, the “CI (chemotherapy index, LD50/ED50)” value came out at 2.12 and the ED50 was found to be 10.6 mg/kg. Besides, in data set [1], the LD50 at 336 h worked out at 22.5 mg/kg.
The corresponding values for `CO[C@]12[C@@H]3[C@H](CN1C1=C(C4=NCCNC4=C(C)C1=O)[C@@H]2COC(N)=O)N3C` (stereo partly drawn) [Compound 3, 7-N,8-N--Ethylenemitomycin E 8-imine] are 1.51, 3.7 mg/kg and 5.6 mg/kg.
Take `C=C1C2=C(C(=O)C(C)=C3NCCN=C32)N2C[C@H]3[C@H](N3C)[C@]12O` (stereo partly drawn) [Compound 4, 9a-O--Demethyl-7-N,8-N--ethylenemitomycin G 8-imine]: in the data set with Sarcoma 180 solid tumor, the “CI (chemotherapy index, LD50/ED50)” value amounted to 2.11 and the 50% effect level (ED50) was put at a dose of 47.5 mg/kg. In addition, in data set [1], the 50% lethal dose (LD50) at 336 h was 100 mg/kg.
In the case of `CO[C@@]12[C@H](COC(N)=O)C3=C(C(=O)C(C)=C4NC5CCCCC5N=C43)N1C[C@H]1[C@@H]2N1C` (stereo partly drawn) [Compound 5, 7-N,8-N--(1,2-Cyclohexylene) porfiromycin 8-imine], the “ILS(%) (ratio to mean survival of the untreated control group)” value in data set [2] (mitomycin C-resistant P-388, dose 1.25 mg/kg) was determined as 144%. Further, the “ILS* (ratio of ILS % of test compound to ILS % of mitomycin C)” value in data set [3] (P-388, dose 1.25 mg/kg) was found to be 0.56.
With `CO[C@@]12[C@H](COC(N)=O)C3=C(C(=O)C(C)=C4NCCN=C43)N1C[C@@H]1N[C@@H]12` [Compound A, 7-N,8-N-ethylenemitomycin C 8-imine, reference compound], in the data set with Sarcoma 180 solid tumor, the “CI (chemotherapy index, LD50/ED50)” value amounted to 1.10 and the 50% effective dose (ED50) amounted to 5.9 mg/kg. Moreover, the LD50 at 336 h in data set [1] stood at 6.5 mg/kg. Besides, the “ILS(%) (ratio to mean survival of the untreated control group)” value in data set [2] (mitomycin C-resistant P-388, dose 100 mg/kg) is 107%. For the same compound, in data set [3] (P-388, dose 100 mg/kg), the “ILS* (ratio of ILS % of test compound to ILS % of mitomycin C)” value was determined as 0.43.
